In ChEMBL document CHEMBL1131962, “A new class of selective and potent inhibitors of neuronal nitric oxide synthase” (Bioorg Med Chem Lett, 1999):

Experiments:
Nitric oxide synthase 3 = target: T1, Nitric oxide synthase 3 (Homo sapiens, UniProt P29474); test: Inhibitory activity against human endothelial nitric oxide synthase (eNOS)
T1 sequence (P29474 whole entry): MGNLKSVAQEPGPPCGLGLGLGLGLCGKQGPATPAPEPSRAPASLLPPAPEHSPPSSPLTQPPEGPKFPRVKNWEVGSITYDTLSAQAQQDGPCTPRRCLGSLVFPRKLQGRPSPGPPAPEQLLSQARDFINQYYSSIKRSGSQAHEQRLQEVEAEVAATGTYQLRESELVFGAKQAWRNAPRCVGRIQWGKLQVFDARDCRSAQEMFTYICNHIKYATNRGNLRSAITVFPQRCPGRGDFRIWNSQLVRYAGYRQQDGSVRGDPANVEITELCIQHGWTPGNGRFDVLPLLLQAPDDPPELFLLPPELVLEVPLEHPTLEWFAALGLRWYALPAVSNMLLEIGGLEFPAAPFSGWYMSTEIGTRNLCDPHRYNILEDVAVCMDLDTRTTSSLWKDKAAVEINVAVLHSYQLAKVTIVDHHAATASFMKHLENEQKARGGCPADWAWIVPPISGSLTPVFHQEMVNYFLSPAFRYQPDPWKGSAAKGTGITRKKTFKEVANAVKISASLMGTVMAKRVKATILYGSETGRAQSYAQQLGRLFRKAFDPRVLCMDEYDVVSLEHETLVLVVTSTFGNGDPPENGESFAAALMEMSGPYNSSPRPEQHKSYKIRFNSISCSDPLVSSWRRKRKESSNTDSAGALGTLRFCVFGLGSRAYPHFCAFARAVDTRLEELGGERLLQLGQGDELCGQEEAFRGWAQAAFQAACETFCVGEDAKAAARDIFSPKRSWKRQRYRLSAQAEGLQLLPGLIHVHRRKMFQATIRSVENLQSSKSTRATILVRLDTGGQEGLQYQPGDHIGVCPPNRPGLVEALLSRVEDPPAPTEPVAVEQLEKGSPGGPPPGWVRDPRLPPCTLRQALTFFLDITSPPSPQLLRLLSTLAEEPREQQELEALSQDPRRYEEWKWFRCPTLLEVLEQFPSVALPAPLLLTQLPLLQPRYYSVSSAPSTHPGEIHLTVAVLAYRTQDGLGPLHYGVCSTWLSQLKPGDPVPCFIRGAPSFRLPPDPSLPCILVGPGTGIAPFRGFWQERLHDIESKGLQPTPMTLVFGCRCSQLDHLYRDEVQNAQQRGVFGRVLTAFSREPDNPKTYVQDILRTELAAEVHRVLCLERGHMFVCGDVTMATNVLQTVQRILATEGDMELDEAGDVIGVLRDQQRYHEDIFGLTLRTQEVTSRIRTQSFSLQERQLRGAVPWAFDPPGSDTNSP

Nitric oxide synthase 1 [1] = target: Nitric oxide synthase 1 (Homo sapiens, UniProt P29475); test: Inhibitory activity against human neuronal nitric oxide synthase (nNOS)
Nitric oxide synthase 1 [2] = target: Nitric oxide synthase 1 (Rattus norvegicus, UniProt P29476); test: Inhibitory activity against rat neuronal nitric oxide synthase (nNOS)
[3] = target: T2, 5-hydroxytryptamine receptor 1A (Homo sapiens, UniProt P08908); test: Binding affinity of compound to human 5-hydroxytryptamine 1A receptor
T2 sequence (P08908 whole entry): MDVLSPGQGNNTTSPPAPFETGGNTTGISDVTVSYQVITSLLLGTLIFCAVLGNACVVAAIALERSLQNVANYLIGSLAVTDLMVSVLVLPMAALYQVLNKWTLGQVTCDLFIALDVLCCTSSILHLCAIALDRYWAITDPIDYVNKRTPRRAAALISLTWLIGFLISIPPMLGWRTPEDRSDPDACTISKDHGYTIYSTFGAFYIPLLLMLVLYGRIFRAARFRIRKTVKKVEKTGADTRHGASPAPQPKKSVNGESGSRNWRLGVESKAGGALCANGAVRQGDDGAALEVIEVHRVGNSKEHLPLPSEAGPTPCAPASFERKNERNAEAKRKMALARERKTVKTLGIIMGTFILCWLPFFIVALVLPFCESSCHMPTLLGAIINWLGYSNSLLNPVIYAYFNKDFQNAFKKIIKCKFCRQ

[4] = target: 5-hydroxytryptamine receptor 2A (Homo sapiens, UniProt P28223); test: Binding affinity of compound to human 5-hydroxytryptamine 2A receptor
D(2) dopamine receptor [5] = target: T3, D(2) dopamine receptor (Homo sapiens, UniProt P14416); test: Binding ability of compound to human Dopamine receptor D2
[6] = Maximum concentration in whole brain at 30 min following 24 mg/kg subcutaneous dose in rats; type: ADME, organism-based; parameters: dose 24 mg/kg, route subcutaneous; conditions: rat, sc
[7] = Maximum concentration in CSF at 30 min following 24 mg/kg subcutaneous dose in rats; type: ADME, organism-based, Cerebrospinal fluid; parameters: dose 24 mg/kg, route subcutaneous; conditions: rat, sc
[8] = Maximum concentration in plasma at 30 min following 24 mg/kg subcutaneous dose in rats; type: ADME, organism-based; parameters: dose 24 mg/kg, route subcutaneous; conditions: rat, sc
[9] = Half life in rats; type: ADME, organism-based; conditions: rat, in vivo
D(2) dopamine receptor [10] = target: T3, D(2) dopamine receptor; test: Binding affinity of compound to Dopamine receptor D2
[11] = target: T4, Muscarinic acetylcholine receptor M2 (Homo sapiens, UniProt P08172); test: Binding affinity of compound to m2 muscarinic receptor
T4 sequence (P08172 whole entry): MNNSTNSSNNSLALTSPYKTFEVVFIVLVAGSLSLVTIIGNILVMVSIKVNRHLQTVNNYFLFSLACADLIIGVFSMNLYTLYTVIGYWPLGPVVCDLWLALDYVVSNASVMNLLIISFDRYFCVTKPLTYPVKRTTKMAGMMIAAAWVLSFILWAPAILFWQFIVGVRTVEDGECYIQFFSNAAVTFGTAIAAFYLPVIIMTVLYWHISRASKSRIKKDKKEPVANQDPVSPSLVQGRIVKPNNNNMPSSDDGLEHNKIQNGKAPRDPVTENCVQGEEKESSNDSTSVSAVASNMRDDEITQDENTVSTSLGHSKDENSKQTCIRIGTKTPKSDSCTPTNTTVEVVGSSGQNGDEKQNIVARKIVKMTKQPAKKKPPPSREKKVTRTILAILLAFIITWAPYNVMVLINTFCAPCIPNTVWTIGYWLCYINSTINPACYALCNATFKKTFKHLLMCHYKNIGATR

[12] = target: T5, Muscarinic acetylcholine receptor M4 (Homo sapiens, UniProt P08173); test: Binding ability of compound to m4 muscarinic receptor
T5 sequence (P08173 whole entry): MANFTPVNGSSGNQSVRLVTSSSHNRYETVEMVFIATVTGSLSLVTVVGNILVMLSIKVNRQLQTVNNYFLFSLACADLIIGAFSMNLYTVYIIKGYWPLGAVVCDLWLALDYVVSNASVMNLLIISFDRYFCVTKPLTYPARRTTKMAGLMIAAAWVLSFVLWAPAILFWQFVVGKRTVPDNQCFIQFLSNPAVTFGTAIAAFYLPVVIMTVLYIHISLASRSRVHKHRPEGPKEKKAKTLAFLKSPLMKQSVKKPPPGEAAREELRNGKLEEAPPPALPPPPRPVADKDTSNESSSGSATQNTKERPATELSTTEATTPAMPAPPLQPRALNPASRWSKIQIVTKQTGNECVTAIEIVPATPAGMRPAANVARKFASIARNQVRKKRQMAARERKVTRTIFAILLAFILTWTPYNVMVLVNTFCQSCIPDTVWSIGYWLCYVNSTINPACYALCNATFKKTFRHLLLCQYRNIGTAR

Nitric oxide synthase 1 (Rattus norvegicus, UniProt P29476), sequence (P29476 whole entry): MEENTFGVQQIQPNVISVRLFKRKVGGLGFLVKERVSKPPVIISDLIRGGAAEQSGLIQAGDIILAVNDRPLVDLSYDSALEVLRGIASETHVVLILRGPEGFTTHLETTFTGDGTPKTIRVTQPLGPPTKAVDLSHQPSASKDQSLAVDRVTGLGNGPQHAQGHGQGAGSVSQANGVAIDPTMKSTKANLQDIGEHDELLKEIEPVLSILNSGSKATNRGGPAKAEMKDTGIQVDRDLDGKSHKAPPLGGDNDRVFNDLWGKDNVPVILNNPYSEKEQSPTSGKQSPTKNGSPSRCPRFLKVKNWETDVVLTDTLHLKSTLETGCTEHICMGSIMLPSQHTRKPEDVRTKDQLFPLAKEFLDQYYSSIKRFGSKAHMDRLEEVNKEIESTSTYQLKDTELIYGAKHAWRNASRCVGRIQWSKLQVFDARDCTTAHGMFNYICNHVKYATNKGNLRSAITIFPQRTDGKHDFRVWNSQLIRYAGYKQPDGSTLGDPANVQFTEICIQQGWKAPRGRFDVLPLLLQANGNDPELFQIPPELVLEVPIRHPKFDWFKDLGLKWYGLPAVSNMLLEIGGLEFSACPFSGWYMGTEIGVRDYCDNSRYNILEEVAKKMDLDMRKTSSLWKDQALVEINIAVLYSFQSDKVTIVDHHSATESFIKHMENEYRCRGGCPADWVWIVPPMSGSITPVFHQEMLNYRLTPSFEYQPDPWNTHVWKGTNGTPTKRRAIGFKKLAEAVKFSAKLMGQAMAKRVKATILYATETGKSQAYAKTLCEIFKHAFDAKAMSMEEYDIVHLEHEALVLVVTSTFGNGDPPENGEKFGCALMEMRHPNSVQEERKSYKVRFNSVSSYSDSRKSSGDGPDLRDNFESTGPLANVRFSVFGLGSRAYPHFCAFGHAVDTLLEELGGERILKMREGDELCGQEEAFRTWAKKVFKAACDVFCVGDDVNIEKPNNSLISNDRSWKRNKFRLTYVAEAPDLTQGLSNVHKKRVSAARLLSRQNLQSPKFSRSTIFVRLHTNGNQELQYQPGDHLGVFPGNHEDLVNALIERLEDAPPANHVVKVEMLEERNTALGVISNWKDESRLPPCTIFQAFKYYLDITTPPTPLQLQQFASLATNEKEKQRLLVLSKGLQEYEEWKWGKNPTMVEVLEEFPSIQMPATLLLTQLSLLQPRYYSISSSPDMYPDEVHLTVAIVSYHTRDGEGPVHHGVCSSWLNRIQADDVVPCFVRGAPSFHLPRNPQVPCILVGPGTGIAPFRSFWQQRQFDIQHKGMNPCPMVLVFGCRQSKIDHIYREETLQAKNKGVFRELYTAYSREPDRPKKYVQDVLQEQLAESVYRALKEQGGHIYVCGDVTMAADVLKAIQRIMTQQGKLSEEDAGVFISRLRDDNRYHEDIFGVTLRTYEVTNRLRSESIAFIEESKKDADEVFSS
Nitric oxide synthase 1 (Homo sapiens, UniProt P29475), sequence (P29475 whole entry): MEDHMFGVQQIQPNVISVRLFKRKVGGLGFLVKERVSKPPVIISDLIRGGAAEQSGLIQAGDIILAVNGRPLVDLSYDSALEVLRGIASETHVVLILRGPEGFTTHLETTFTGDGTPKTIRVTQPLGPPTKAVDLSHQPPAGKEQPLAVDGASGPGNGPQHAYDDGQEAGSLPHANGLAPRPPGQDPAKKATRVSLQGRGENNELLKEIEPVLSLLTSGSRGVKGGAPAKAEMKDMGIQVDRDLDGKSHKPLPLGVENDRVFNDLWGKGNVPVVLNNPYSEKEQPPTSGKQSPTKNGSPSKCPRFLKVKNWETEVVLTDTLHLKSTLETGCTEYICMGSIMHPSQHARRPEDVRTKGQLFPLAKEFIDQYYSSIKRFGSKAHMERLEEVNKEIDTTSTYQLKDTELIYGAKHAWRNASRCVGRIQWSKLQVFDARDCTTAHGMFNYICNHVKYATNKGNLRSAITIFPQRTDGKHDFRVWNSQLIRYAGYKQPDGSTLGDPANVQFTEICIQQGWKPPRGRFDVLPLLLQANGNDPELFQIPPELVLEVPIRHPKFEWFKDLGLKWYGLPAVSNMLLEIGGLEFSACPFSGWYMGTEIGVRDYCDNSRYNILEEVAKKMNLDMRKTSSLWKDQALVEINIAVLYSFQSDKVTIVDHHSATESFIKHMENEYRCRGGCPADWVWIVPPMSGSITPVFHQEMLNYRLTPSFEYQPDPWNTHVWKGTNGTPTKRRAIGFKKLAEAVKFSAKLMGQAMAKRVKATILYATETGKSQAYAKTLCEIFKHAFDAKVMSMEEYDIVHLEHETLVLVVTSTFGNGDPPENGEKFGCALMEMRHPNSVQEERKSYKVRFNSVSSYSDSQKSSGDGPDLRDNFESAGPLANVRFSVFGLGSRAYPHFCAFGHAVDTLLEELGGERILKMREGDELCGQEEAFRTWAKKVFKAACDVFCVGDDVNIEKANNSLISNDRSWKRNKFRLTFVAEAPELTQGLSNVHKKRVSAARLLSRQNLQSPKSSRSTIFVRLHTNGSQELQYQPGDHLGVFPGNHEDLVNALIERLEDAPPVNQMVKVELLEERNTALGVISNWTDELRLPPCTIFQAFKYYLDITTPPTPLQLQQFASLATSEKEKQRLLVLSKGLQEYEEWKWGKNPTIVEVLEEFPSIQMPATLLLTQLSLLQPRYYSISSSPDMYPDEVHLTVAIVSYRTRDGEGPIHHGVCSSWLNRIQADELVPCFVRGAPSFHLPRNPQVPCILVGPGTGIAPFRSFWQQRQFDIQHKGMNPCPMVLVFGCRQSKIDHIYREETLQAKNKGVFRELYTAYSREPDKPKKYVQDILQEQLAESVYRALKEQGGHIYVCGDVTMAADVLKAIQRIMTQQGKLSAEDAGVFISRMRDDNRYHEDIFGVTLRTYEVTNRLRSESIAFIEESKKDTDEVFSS
T3 sequence (P14416 whole entry): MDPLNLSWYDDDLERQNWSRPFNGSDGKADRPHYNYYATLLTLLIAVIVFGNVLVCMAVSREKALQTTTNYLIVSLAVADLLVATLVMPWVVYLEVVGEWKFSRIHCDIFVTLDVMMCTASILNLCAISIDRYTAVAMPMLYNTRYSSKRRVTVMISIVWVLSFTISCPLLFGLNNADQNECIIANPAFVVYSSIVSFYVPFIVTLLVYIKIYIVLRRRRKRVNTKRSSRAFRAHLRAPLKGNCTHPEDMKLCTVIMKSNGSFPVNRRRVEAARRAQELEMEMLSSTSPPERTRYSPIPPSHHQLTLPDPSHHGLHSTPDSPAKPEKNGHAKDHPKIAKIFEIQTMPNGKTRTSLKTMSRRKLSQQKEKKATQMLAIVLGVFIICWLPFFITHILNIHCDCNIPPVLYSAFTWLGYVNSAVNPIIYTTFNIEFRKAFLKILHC
5-hydroxytryptamine receptor 2A, sequence (P28223 whole entry): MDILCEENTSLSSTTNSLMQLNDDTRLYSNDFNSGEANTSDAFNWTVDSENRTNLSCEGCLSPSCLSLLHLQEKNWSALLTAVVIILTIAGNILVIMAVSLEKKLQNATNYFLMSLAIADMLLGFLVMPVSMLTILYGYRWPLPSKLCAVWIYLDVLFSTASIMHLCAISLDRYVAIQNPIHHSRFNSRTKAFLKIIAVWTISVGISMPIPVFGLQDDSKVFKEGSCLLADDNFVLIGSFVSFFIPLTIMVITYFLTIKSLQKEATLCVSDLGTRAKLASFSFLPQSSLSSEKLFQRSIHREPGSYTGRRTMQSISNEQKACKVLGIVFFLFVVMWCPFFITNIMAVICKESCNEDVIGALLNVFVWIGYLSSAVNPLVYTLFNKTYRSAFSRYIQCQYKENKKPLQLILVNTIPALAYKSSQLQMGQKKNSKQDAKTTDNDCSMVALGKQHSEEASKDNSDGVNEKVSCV

With `CC(C)CN1CCN(CCc2ccc(-c3cccc(N)n3)cc2)CC1` the IC50 (Nitric oxide synthase 3) was 0.372 µM, the IC50 (Nitric oxide synthase 1 [1]) was 0.35 µM and the IC50 (Nitric oxide synthase 1 [2]) was 0.193 µM.

Compound `Nc1cccc(-c2ccc(CCN3CCN(c4cccc5cccnc45)CC3)cc2)n1` has a Ki [3] of 0.003 µM, a Ki [4] of 0.014 µM and a Ki (D(2) dopamine receptor [5]) of 0.011 µM. For the same compound, the IC50 (Nitric oxide synthase 3) was 0.825 µM, the IC50 (Nitric oxide synthase 1 [1]) was 0.212 µM and the IC50 (Nitric oxide synthase 1 [2]) was 0.13 µM.

`Nc1cccc(-c2ccc(CCN3CCN(CCc4ccccc4)CC3)cc2)n1` gave an IC50 (Nitric oxide synthase 3) of 0.448 µM, an IC50 (Nitric oxide synthase 1 [1]) of 0.264 µM and an IC50 (Nitric oxide synthase 1 [2]) of 0.247 µM.

Work on `O=[N+]([O-])c1cccc2cn[nH]c12` [7-NITROINDAZOLE] yielded an IC50 (Nitric oxide synthase 1 [1]) of 2.87 µM.

Compound `Nc1cccc(-c2ccc(CCN3CCN(C(=O)Cc4ccccc4)CC3)cc2)n1` has an IC50 (Nitric oxide synthase 3) of 0.685 µM, an IC50 (Nitric oxide synthase 1 [1]) of 0.137 µM and an IC50 (Nitric oxide synthase 1 [2]) of 0.108 µM.

Work on `CC(C)NC(=O)CN1CCN(CCc2ccc(-c3cccc(N)n3)cc2)CC1` yielded an IC50 (Nitric oxide synthase 3) of 0.815 µM, an IC50 (Nitric oxide synthase 1 [1]) of 0.33 µM and an IC50 (Nitric oxide synthase 1 [2]) of 0.256 µM.

Work on `Nc1cccc(-c2ccc(CCN3CCN(CC(=O)c4ccccc4)CC3)cc2)n1` yielded a Cmax [6] of 11 µg/mL, a Cmax [7] of 0.45 µg/mL and a Cmax [8] of 1.7 µg/mL. For the same compound, the half-life [9] was 3.6 h, the IC50 (D(2) dopamine receptor [10]) was > 10 µM and the IC50 (Nitric oxide synthase 3) was 0.887 µM. For the same compound, the Ki [11] was 0.32 µM, the Ki [12] was 0.59 µM and the IC50 (Nitric oxide synthase 1 [1]) was 0.14 µM. It also gave an IC50 (Nitric oxide synthase 1 [2]) of 0.127 µM.
